{
  "source": "patent US20050119272A1",
  "about": "“Use of phosphodiesterase antagonists to treat insulin resistance” (DiaMedica Inc., priority 2002, published 2005)",
  "key": {"[1]": {"test_system": "cats", "assay": "Development of insulin resistance in cats after intraportal muscarinic antagonists", "assay_type": "in vivo, cat", "text": "To avoid the complexity of the reaction to hypoglycemia, the rapid insulin sensitivity test (RIST) was employed (Lautt et al., Can. J. Physiol. Pharmacol. 76:1080 (1998)) wherein a euglycemic clamp was used following the administration of insulin and the response was quantitated as the amount of glucose required to be infused over the test period in order to hold arterial blood glucose levels constant."}, "[2]": {"test_system": "atropine-treated rats", "assay": "Rapid insulin sensitivity test (RIST) in the atropine model of 75% HDIR in rats", "assay_type": "in vivo, rat", "method": "Male Sprague Dawley rats (250-300 g) were allowed free access to water and normal rodent food for 1 week prior to all studies. Rats were fasted for 8 hours overnight and fed for 2 hours before the start of study. Rats were anesthetized with pentobarbital-sodium (65 mg/ml, ip injection, 0.1 ml/100 g body weight). Animals were placed on a heated thermostatically controlled surgical table to maintain body temperature during surgery and the experimental procedure. An extra-corporeal arterial-venous shunt (the loop) was established between the right femoral artery and right femoral vein, according to a published, standard operating procedure developed in our laboratory (Xie et al., 1996). The loop allows for regular blood sampling of arterial blood throughout the experiment as well as infusion of intravenous drugs and monitoring of arterial blood pressure. […] A laparotomy was performed and an indwelling portal venous catheter was inserted using a portal vein puncture technique. The portal catheter was used to administer the phosphodiesterase inhibitor directly to the liver. […] At this point, blood samples (25 μl) were taken at regular intervals from the loop and analyzed for glucose concentration. […] Glucose levels were monitored every 2 minutes during and after the infusion of insulin. […]"}},
  "data": [
    {"smiles": "COc1ccccc1CNCCCCCCNCCCCCCCCNCCCCCCNCc1ccccc1OC", "note": "[methoctramine]", "values": [
      {"measurement": "dose required to produce a full insulin resistance", "setting": "[1]; administered into the portal vein", "result": "10^−6 μmol/kg"}
    ]},
    {"smiles": "CN1CCN(CC(=O)N2c3ccccc3C(=O)Nc3cccnc32)CC1", "note": "[pirenzepine]", "values": [
      {"measurement": "dose achieving a similar degree of insulin resistance", "setting": "[1]", "result": "10^−7 mmol/kg"}
    ]},
    {"smiles": "CCCOc1ccccc1-c1nc2nn[nH]c2c(=O)[nH]1", "note": "[zaprinast]", "values": [
      {"measurement": "RIST index", "setting": "[2]; after zaprinast 0.1 mg/kg ipv, following atropine-induced 75% HDIR, n=8", "result": "157.4 ± 6.1", "unit": "mg/kg"},
      {"measurement": "reversal of HDIR produced by atropine", "setting": "[2]; zaprinast 0.1 mg/kg ipv, rats", "result": "able to reverse the HDIR produced by atropine"}
    ]}
  ]
}
